Results as given in ChEMBL document CHEMBL4393656, “Cationic biaryl 1,2,3-triazolyl peptidomimetic amphiphiles targeting Clostridioides (Clostridium) difficile: Synthesis, antibacterial evaluation and an in vivo C. difficile infection model” (Eur J Med Chem, 2019).
Values after ≈ are worked out from the molar mass of the structure shown. Active and inactive are the calls of the source. No cut-off for these calls is given here.

Assays:
[1] = Aqueous solubility of the DMSO-dissolved compound in >200 uL water at 5 mg; format: physicochemical; details: buffer
[2] = tested on: Staphylococcus aureus; experiment: Growth inhibition of methicillin-resistant Staphylococcus aureus ATCC 43300 incubated for 18 hrs; format: organism-based
[3] = Cytotoxicity against HEK293 cells assessed as decrease in cell viability after 20 hrs by resazurin dye-based fluorescence assay; details: human
[4] = Haemolytic activity in sheep erythrocytes assessed as induction of haemolysis at 5 ug/ml incubated for 2 hrs relative to control; format: cell-based, Ovis aries, Erythrocyte; details: read-out: Activity
[5] = Haemolytic activity in sheep erythrocytes assessed as induction of haemolysis at 50 ug/ml incubated for 2 hrs relative to control; format: cell-based, Ovis aries, Erythrocyte; details: read-out: Activity
[6] = tested on: Escherichia coli; experiment: Growth inhibition of Escherichia coli ATCC 25922 incubated for 18 hrs; format: organism-based
[7] = tested on: Enterococcus faecalis; experiment: Growth inhibition of Enterococcus faecalis ATCC 29212 incubated in MHB broth for 24 hrs; format: organism-based
[8] = tested on: Streptococcus pneumoniae; experiment: Growth inhibition of Streptococcus pneumoniae ATCC 49619 incubated in MHB medium with lysed horse blood and 5% CO2 for 24 hrs; format: organism-based
[9] = tested on: Clostridioides difficile; experiment: Antibacterial activity against Clostridium difficile ATCC 700057 incubated for 2 to 4 hrs in pre-reduced brucella broth supplemented with haemin/vitamin K and further incubation in anaerobic condition for 48 hrs; format: functional
[10] = tested on: Klebsiella pneumoniae; experiment: Growth inhibition of Klebsiella pneumoniae ATCC 700603 incubated for 18 hrs; format: organism-based
[11] = tested on: Acinetobacter baumannii; experiment: Growth inhibition of Acinetobacter baumannii ATCC 19606 incubated for 18 hrs without shaking by absorbance based monochromator plate reader analysis; format: organism-based, ATCC 19606 = CIP 70.34 = JCM 6841; details: in vitro
[12] = tested on: Clostridioides difficile; experiment: Antibacterial activity against Clostridium difficile NSW132 RT027 incubated for 2 to 4 hrs in pre-reduced brucella broth supplemented with haemin/vitamin K and further incubation in anaerobic condition for 48 hrs; format: functional
[13] = tested on: Pseudomonas aeruginosa; experiment: Growth inhibition of Pseudomonas aeruginosa ATCC 27853 incubated for 18 hrs; format: organism-based
[14] = tested on: Staphylococcus aureus; experiment: Growth inhibition of Staphylococcus aureus ATCC 29213 incubated in MHB broth for 24 hrs; format: organism-based
[15] = tested on: Clostridioides difficile; experiment: Antibacterial activity against Clostridium difficile ribotype 027 M7404 spores infected in antibiotic cocktail-induced CDI C57BL/6J mouse model assessed as decrease in fecal spore load at 100 mg/kg administered via oral gavage for every 12 hrs starting from 6 hrs post-infection and measured at 24 hrs post infection by heat shock based plating method; format: functional, organism-based; details: genomovar ribotype 027 M7404
[16] = tested on: Clostridioides difficile; experiment: Antibacterial activity against Clostridium difficile ribotype 027 M7404 spores infected in antibiotic cocktail-induced CDI C57BL/6J mouse model assessed as decrease in diarrhea at 100 mg/kg administered via oral gavage for every 12 hrs starting from 6 hrs post-infection and measured at 24 hrs post infection; format: functional, organism-based; details: genomovar ribotype 027 M7404
[17] = tested on: Clostridioides difficile; experiment: Antibacterial activity against Clostridium difficile ribotype 027 M7404 spores infected in antibiotic cocktail-induced CDI C57BL/6J mouse model assessed as protection against bacterial infection at 100 mg/kg administered via oral gavage for every 12 hrs starting from 6 hrs post-infection and measured at 2 days post infection; format: functional, organism-based; details: genomovar ribotype 027 M7404
[18] = tested on: Clostridioides difficile; experiment: Antibacterial activity against Clostridium difficile ribotype 027 M7404 spores infected in antibiotic cocktail-induced CDI C57BL/6J mouse model assessed as decrease in weight loss at 100 mg/kg administered via oral gavage for every 12 hrs starting from 6 hrs post-infection and measured at 24 hrs post infection; format: functional, organism-based; details: genomovar ribotype 027 M7404
[19] = tested on: Clostridioides difficile; experiment: Antibacterial activity against Clostridium difficile ribotype 027 M7404 spores infected in antibiotic cocktail-induced CDI C57BL/6J mouse model assessed as decrease in physiological appearance score at 100 mg/kg administered via oral gavage for every 12 hrs starting from 6 hrs post-infection and measured at 24 hrs post infection; format: functional, organism-based; details: genomovar ribotype 027 M7404
[20] = tested on: Staphylococcus aureus; experiment: Growth inhibition of methicillin resistant Staphylococcus aureus NCTC 10442 incubated in MHB medium for 24 hrs; format: organism-based
[21] = tested on: Staphylococcus aureus; experiment: Induction of cytoplasmic membrane depolarization in Staphylococcus aureus ATCC 29213 at 8 ug/ml by DiSC3-5 dye based fluorescence method; format: organism-based
[22] = tested on: Staphylococcus aureus; experiment: Induction of cytoplasmic membrane permeabilization in Staphylococcus aureus ATCC 29213 at 8 ug/ml by propidium iodide staining based fluorescence method; format: organism-based
[23] = tested on: Escherichia coli; experiment: Induction of cytoplasmic membrane permeabilization in Escherichia coli NCTC 10418 at 4 ug/ml by propidium iodide staining based fluorescence method; format: organism-based
[24] = tested on: Escherichia coli; experiment: Induction of cytoplasmic membrane depolarization in Escherichia coli NCTC 10418 at 4 ug/ml by DiSC3-5 dye based fluorescence method; format: organism-based
[25] = tested on: Escherichia coli; experiment: Induction of cytoplasmic membrane permeabilization in Escherichia coli NCTC 10418 at 32 ug/ml by propidium iodide staining based fluorescence method; format: organism-based
[26] = tested on: Escherichia coli; experiment: Induction of cytoplasmic membrane depolarization in Escherichia coli NCTC 10418 at 64 ug/ml by DiSC3-5 dye based fluorescence method; format: organism-based
[27] = tested on: Staphylococcus aureus; experiment: Induction of cytoplasmic membrane depolarization in Staphylococcus aureus ATCC 29213 at 32 ug/ml by DiSC3-5 dye based fluorescence method; format: organism-based
[28] = tested on: Staphylococcus aureus; experiment: Induction of cytoplasmic membrane permeabilization in Staphylococcus aureus ATCC 29213 at 32 ug/ml measured after 10 mins by propidium iodide staining based fluorescence method; format: organism-based
[29] = tested on: Staphylococcus aureus; experiment: Induction of cytoplasmic membrane permeabilization in Staphylococcus aureus ATCC 29213 at 32 ug/ml by propidium iodide staining based fluorescence method relative to control
[30] = Drug accumulation in feces of antibiotic cocktail-induced CDI C57BL/6J mouse model infected with Clostridium difficile ribotype 027 M7404 spores at 100 mg/kg administered via oral gavage for every 12 hrs starting from 6 hrs post-infection by LRMS analysis; format: ADME, organism-based; details: in vivo
[31] = Drug accumulation in blood of antibiotic cocktail-induced CDI C57BL/6J mouse model infected with Clostridium difficile ribotype 027 M7404 spores at 100 mg/kg administered via oral gavage for every 12 hrs starting from 6 hrs post-infection by LRMS analysis; format: ADME, organism-based; details: in vivo
[32] = tested on: Clostridioides difficile; experiment: Antibacterial activity against Clostridium difficile ribotype 027 M7404 spores infected in antibiotic cocktail-induced CDI C57BL/6J mouse model assessed as survival rate at 100 mg/kg administered via oral gavage for every 12 hrs starting from 6 hrs post-infection and measured at 24 hrs post infection (reference value: 0%); format: functional, genomovar ribotype 027 M7404
[33] = Drug localization in blood of C57BL/6J mouse measured after 2 hr by LRMS analysis; format: ADME, tissue-based
[34] = tested on: Staphylococcus aureus; experiment: Induction of cytoplasmic membrane permeabilization in Staphylococcus aureus ATCC 29213 at 32 ug/ml measured after 40 mins by propidium iodide staining based fluorescence method; format: organism-based
[35] = tested on: Clostridioides difficile; experiment: Antibacterial activity against Clostridium difficile ribotype 027 M7404; format: functional; details: genomovar ribotype 027 M7404
[36] = Solubility of the compound in 10% DMSO solution; format: physicochemical

CC(C)CCOc1ccccc1-c1ccccc1OCc1cn([C@H](CCCCN)C(=O)NCC2CCCCC2)nn1.Cl
solubility [1]: Soluble | MIC [2]: 8 µg/mL | CC50 at 20 h [3]: 5.6 µg/mL | hemolysis at 2 h, 5 ug/ml [4]: 0% | hemolysis at 2 h, 50 ug/ml [5]: 98% | MIC [6]: > 32 µg/mL | MIC [7]: 8 µg/mL | MIC [8]: 8 µg/mL | MIC [9]: 16 µg/mL | MIC [10]: > 32 µg/mL | MIC [11]: 32 µg/mL | MIC [12]: 32 µg/mL | MIC [13]: > 32 µg/mL | MIC [14]: 8 µg/mL

CC(C)CCOc1ccccc1-c1ccccc1OCc1cn(C[C@@H](CCCCN)NC(=O)[C@@H](CCCNC(=N)N)n2cc(CC3CCCCC3)nn2)nn1.Cl.Cl
Activity [15]: inactive | Activity [16]: inactive | MIC [9]: 1 µg/mL | Activity [17]: inactive | Activity [18]: inactive | Activity [19]: inactive

CN[C@H](CC(C)C)C(=O)N[C@H]1C(=O)N[C@@H](CC(N)=O)C(=O)N[C@H]2C(=O)N[C@H]3C(=O)N[C@H](C(=O)N[C@H](C(=O)O)c4cc(O)cc(O)c4-c4cc3ccc4O)[C@H](O)c3ccc(c(Cl)c3)Oc3cc2cc(c3O[C@@H]2O[C@H](CO)[C@@H](O)[C@H](O)[C@H]2O[C@H]2C[C@](C)(N)[C@H](O)[C@H](C)O2)Oc2ccc(cc2Cl)[C@H]1O [VANCOMYCIN]
MIC [20]: 1 µg/mL (≈ 0.69 µM) | MIC [2]: 1 µg/mL (≈ 0.69 µM) | MIC [7]: 4 µg/mL (≈ 2.76 µM) | MIC [8]: 1 µg/mL (≈ 0.69 µM) | MIC [9]: 0.5 µg/mL (≈ 0.345 µM) | Activity [21]: inactive | Activity [22]: inactive | MIC [12]: 0.5 µg/mL (≈ 0.345 µM) | MIC [14]: 1 µg/mL (≈ 0.69 µM)

COLISTIN
Activity [23]: Active | Activity [24]: Active

CC(C)CCOc1ccccc1-c1ccccc1OCc1cn([C@H](CCCNC(=N)N)C(=O)NC2CCCCC2)nn1.Cl
Activity [15]: Active | Activity [25]: Active | MIC [2]: 4 µg/mL | CC50 at 20 h [3]: 19.7 µg/mL | Activity [26]: Active | Activity [27]: Active | hemolysis at 2 h, 5 ug/ml [4]: 1.4% | hemolysis at 2 h, 50 ug/ml [5]: 81.8% | MIC [6]: > 32 µg/mL | MIC [7]: 4 µg/mL | Activity [16]: Active | MIC [8]: 4 µg/mL | MIC [9]: 8 µg/mL | Activity [17]: inactive | MIC [10]: > 32 µg/mL | Activity [18]: inactive | Activity [28]: Active | MIC [11]: 32 µg/mL | MIC [12]: 16 µg/mL | MIC [13]: > 32 µg/mL | Activity [29]: >500% | MIC [14]: 4 µg/mL

CC(C)CCOc1ccccc1-c1ccccc1OCc1cn(C[C@@H](CCCCN)NC(=O)[C@@H](CCCNC(=N)N)n2cc(C3CCCCC3)nn2)nn1.Cl.Cl
Activity [15]: inactive | Activity [16]: inactive | MIC [9]: 4 µg/mL | Activity [17]: inactive | Activity [18]: inactive | Activity [19]: inactive

CC(C)CCOc1ccc2ccccc2c1-c1c(OCc2cn(C[C@@H](CCCCN)NC(=O)[C@@H](CCCNC(=N)N)NC(=O)CCc3ccccc3)nn2)ccc2ccccc12.Cl.Cl
Drug uptake [30]: Active | Activity [16]: Active | MIC [9]: 8 µg/mL | Drug uptake [31]: Not Active | Activity [32]: 50% | Drug uptake [33]: Not Active

CC(C)CCOc1ccccc1-c1ccccc1OCc1cn([C@H](CCCCN)C(=O)N[C@H](CCCNC(=N)N)Cn2cc(CCc3ccccc3)nn2)nn1.Cl.Cl
Activity [25]: Active | Activity [34]: Active | MIC [2]: 2 µg/mL | CC50 at 20 h [3]: 16.4 µg/mL | Activity [26]: Active | Activity [27]: Active | hemolysis at 2 h, 5 ug/ml [4]: 1.4% | hemolysis at 2 h, 50 ug/ml [5]: 12.6% | MIC [6]: 8 µg/mL | MIC [7]: 8 µg/mL | MIC [8]: 8 µg/mL | MIC [9]: 16 µg/mL | MIC [10]: 16 µg/mL | MIC [11]: 8 µg/mL | MIC [12]: 16 µg/mL | MIC [13]: 8 µg/mL | Activity [29]: >500% | MIC [14]: 4 µg/mL

CC(C)CCOc1ccc2ccccc2c1-c1c(OCC(=O)N[C@H](CCCNC(=N)N)C(=O)NCc2ccccc2)ccc2ccccc12.Cl
MIC [2]: 4 µg/mL | CC50 at 20 h [3]: > 32 µg/mL | hemolysis at 2 h, 5 ug/ml [4]: 0.3% | hemolysis at 2 h, 50 ug/ml [5]: 100% | MIC [6]: > 32 µg/mL | MIC [7]: 2 µg/mL | MIC [35]: 2 µg/mL | Activity [16]: inactive | MIC [8]: 2 µg/mL | MIC [9]: 8 µg/mL | Activity [17]: inactive | MIC [10]: > 32 µg/mL | Activity [18]: inactive | Activity [19]: inactive | MIC [11]: > 32 µg/mL | MIC [12]: 8 µg/mL | MIC [13]: > 32 µg/mL | MIC [14]: 2 µg/mL

CC(C)CCOc1ccc2ccccc2c1-c1c(OCC(=O)N[C@H](CCCNC(=N)N)Cn2cc(-c3ccccc3)nn2)ccc2ccccc12.Cl
solubility [36]: Insoluble | hemolysis at 2 h, 50 ug/ml [5]: 86% | MIC [9]: 8 µg/mL
